# Like-named read-outs stand apart in the source and are kept apart here.
# What was measured:
# [1] = tested on: TNF-α production in HPBMC; assay: TNF-α levels in LPS-stimulated Human Peripheral Blood Mononuclear cells (ELISA); assay type: cell-based; settings: 5 hr drug exposure, read-out: EC50 Inhibition of TNF-α production
# Protocol: (§1) Eighty μl of 3.1×10^5/ml Human Peripheral Blood Mononuclear cells (HPBMC) were seeded in Costar 3904 96-well plate in LGM-3 medium and cultured for 12 hr at 37° C., 5% CO2 and 95% humidified air. 10 μl of 8-point half-log serial dilutions of LT-1-85, CC-3-19, CC-3-13P, formula (IIB-A1) and CC-3-22 prepared in LGM-3 medium was added to the cells and incubated for 1 hr. Subsequently, 10 μl of 500 ng/ml lipopolysaccharide (LPS) diluted in LGM-3 medium from 1 mg/ml stock solution was added to the cells and incubation proceeded for another 4 hr at 37° C., 5% CO2 and 95% humidified air. SB203580, a known p38 MAP kinase inhibitor and DMSO were used as positive and negative controls, respectively. After 4 hr stimulation with LPS, the level of TNF-α from each sample was analyzed by using the human TNF-α cytoset ELISA kit. EC50 values (the drug concentration at which 50% of the maximal observed TNF-α production is inhibited) were determined using a standard sigmoidal dose response curve fitting algorithm (Prism 2.0, GraphPad Software Inc). A duplicate set of cell plates were assayed for cell viability using the Resazurin dye after the cells were incubated with test compounds for 24 hr. The fluorescence of the reduction product of Resazurin was measured using a Fusion microplate fluorometer (Packard Bioscience) with λex=535 nm and λem=590 nm filters. EC50 values (the drug concentration at which 50% of the maximal observed growth inhibition is established) were determined using a standard sigmoidal dose response curve fitting algorithm (Prism 2.0, GraphPad Software Inc).
# [2] = tested on: HPBMC; assay: HPBMC cell viability, Resazurin; assay type: cell-based, Human; settings: HPBMC, 24 hr drug exposure, read-out: EC50 Inhibition of cell growth
# Protocol: as §1
# [3] = tested on: PC-3 cells; assay: cell growth inhibition, PC-3, Resazurin, 1% FBS; assay type: cell-based, Human; settings: 48 hr of drug exposure
# Protocol: (§2) Human prostate adenocarcinoma (PC-3; CRL-1435), multiple myeloma (RPMI 8226; CCL-155) and embryonic kidney (HEK-293; CRL-1573) cells were all purchased from ATCC and maintained in appropriate culture media. The cells were cultured in an incubator at 37° C. in 5% CO2 and 95% humidified air.
# (§3) For cell growth inhibition assays, PC-3 and HEK-293 cells were seeded at 5×10^3 and 1.5×10^3 cells/well respectively in 90 μl media containing 1% (v/v) FBS into 96 well (Corning; 3904) black-walled, clear-bottom tissue culture plates and the plates were incubated overnight to allow cells to establish and enter log phase growth. RPMI 8226 cells were seeded at 2×10^4 cells/well respectively in 90 μl media containing 1% (v/v) FBS into 96 well plates on the day of the assay. 4 mg/ml stock solutions of the compounds were prepared in 100% DMSO and stored at −20° C. The compounds were serially diluted and added in triplicate to the test wells. LT-1-85 was tested at concentrations ranging from 27 μM to 8.6 nM. Concentrations ranging from 30 μM to 9.7 nM were tested for CC-3-13P. Formula (IIB-A1) was tested at concentrations ranging from 26 μM to 8.4 nM. The plates were returned to the incubator for 48 hours. The final concentration of DMSO was 0.25% in all samples.
# (§4) Following 48 hours of drug exposure, 10 μl of 0.2 mg/ml Resazurin in Mg2+, Ca2+ free phosphate buffered saline was added to each well and the plates were returned to the incubator for 3-6 hours. Since living cells metabolize Resazurin, the fluorescence of the reduction product of Resazurin was measured using a Fusion microplate fluorometer (Packard Bioscience) with λex=535 nm and λem=590 nm filters. Resazurin dye in medium without cells was used to determine the background, which was subtracted from the data for all experimental wells. […] Where the maximum inhibition of cell growth was less than 50%, an EC50 value was not determined. The data in Table 25 summarize the growth inhibitory effects of LT-1-85, CC-3-13P and formula (IIB-A1) against HEK-293, PC-3 and RPMI 8226 cells. The EC50 values indicate that LT-1-85 and CC-3-13P are cytotoxic against HEK-293, PC-3 and RPMI 8226 cells. Formula (IIB-A1) is cytotoxic against RPMI 8226 cells.
# [4] = tested on: RPMI 8226 cells; assay: cell growth inhibition, RPMI 8226, Resazurin, 1% FBS; assay type: cell-based, Human; settings: 48 hr of drug exposure
# Protocol: as §2, §3, §4
# [5] = tested on: TNF-α production in THP-1 cells; assay: LPS-induced TNF-α production in differentiated THP-1 cells (FLISA); assay type: cell-based; settings: Homo sapiens, read-out: Percent TNF-α Inhibition
# Protocol: (§5) The ability to inhibit TNF-α production was analyzed in THP-1 cells, a human acute monocytic leukemia cell line that is widely used to assess monocyte functions. In order to induce maturation, THP-1 cells were plated at 1×10^6 cells/ml and pretreated with 5 nM PMA for two days. Differentiated THP-1 cells were pretreated with various concentrations of TTL3 or its analogs for 1 hour, followed by a 4 hour incubation with 1 μg of LPS (Sigma, St. Louse, Mo.). The p38 inhibitor (SB 203580; Sigma, St. Louis, Mo.) was used as a positive control. Supernatants were collected and stored at −80° C. until assayed for TNF-α activity. A resazurin assay was performed for each analog to evaluate the effects on cell metabolism and viability.
# To detect the presence of human TNFα, fluorescent linked immunosorbent assay or FLISA was developed and optimized. 100 μl of beads (6 μm, Spherotech) coated with goat anti-mouse IgG (1 mg/ml, R and D Systems) were mixed with 4 μl of biotin-anti-hTNFα mouse IgG (0.1 mg/ml, R and D Systems) and 2 μl of FMAT Blue-streptavidin (0.1 mg/ml, Applied Biosystems). 50 μl of the mixtures was combined with 50 μl of the supernatant isolated from treated THP-1 cells and added to the black wall FLISA plates (Applied Biosystems) and incubated overnight. The plates were scanned at factory set PMT setting, and the values were plotted and analyzed by Applied Biosystems software.
# [6] = tested on: THP-1 cells; assay: resazurin viability assay in THP-1 cells; assay type: cell-based, human; settings: * mild, ** marked reduction in viability, in % (unit assumed)
# Protocol: as §5
# A preparation of the dye resazurin, commercially-available as alamarBlue™ (Biosource International Inc., 820 Flynn Road, Camarillo, Calif.), was used for the cytotoxicity assays described herein. The assays and experiments described herein were conducted in substantially the same manner as described in the scientific literature, for example, in Magnani, E. and Bettini, E., “Resazurin detection of energy metabolism changes in serum-starved PC12 cells and of neuroprotective agent effect,” Brain Res Protoc., 2000 July; 5(3):266-72 and in Nociari M. M., Shalev A., Benias P., and Russo C. J, “A novel one-step, highly sensitive fluorometric assay to evaluate cell-mediated cytotoxicity,” Immunol. Methods 213, 157-167 (1998), see also U.S. Pat. No. 5,501,959, entitled “Antibiotic and Cytotoxic Drug Susceptibility Assays using Resazurin and Poising Agents,” the entire specification of which is incorporated herein by reference.
# [7] = tested on: RPMI 8226 (MM); assay: 48 hr cytotoxicity, RPMI 8226; assay type: cell-based, human; settings: Homo sapiens, RPMI-8226, 48 h
# Protocol: (§6) Human colon adenocarcinoma HT-29 (ATCC# HTB-38), prostate adenocarcinoma PC-3 (ATCC# CRL-1435), breast adenocarcinoma MDA-MB231 (ATCC# HTB-26), Multiple Myeloma RPMI 8226 (ATCC# CCL-155) and U266 (ATCC # TIB-196) cell lines and human normal fibroblast CCD-27sk (ATCC# CRL-1475) were all purchased from ATCC (Manassas, Va.). The cells were maintained in their respective ATCC recommended culture media at 37° C., 5% CO2 and 95% humidified air.
# (§7) The cytotoxicity assays were performed by seeding individual cell lines at appropriate density in the 96 well flat-bottomed plates and allowed to attach for 24 hours at 37° C., 5% CO2 and 95% humidified air (RPMI 8226 and U266 cells were plated in 96 well plates on the day of compound addition). Serially diluted NPI-1387 was added in triplicate to cells at concentrations ranging from 160 nM to 20 μM. Final concentration of 0.25% (v/v) DMSO was used as the vehicle control. Cell viability was assessed 48 hours later by measuring the fluorescence of the reduction product of Resazurin by a Fusion microplate fluorometer (PerkinElmer) with λex=535 nm and λem=590 nm filters. The IC50 values (the drug concentration at which 50% of the maximal observed cytotoxicity is established) were calculated in XLFit 3.0 or XLFit 4.0 (ID Business Solutions Ltd) using a sigmoidal dose response model.
# [8] = tested on: U266 (MM); assay: 48 hr cytotoxicity, U266; assay type: cell-based, human; settings: Homo sapiens, U-266, 48 h
# Protocol: (§8) B16-F10 (ATCC; CRL-6475), DU 145 (ATCC; HTB-81), HEK293 (ATCC; CRL-1573), HT-29 (ATCC; HTB-38), LoVo (ATCC; CCL-229), MDA-MB-231 (ATCC; HTB-26), MIA PaCa-2 (ATCC; CRL-1420), NCI-H292 (ATCC; CRL-1848), OVCAR-3 (ATCC, HTB-161), PANC-1 (ATCC; CRL-1469), PC-3 (ATCC; CRL-1435), RPMI 8226 (ATCC; CCL-155) and U266 (ATCC; TIB-196) are maintained in appropriate culture media. The cells are cultured in an incubator at 37° C. in 5% CO2 and 95% humidified air.
# (§9) For cell growth inhibition assays, B16-F10, DU 145, HEK293, HT-29, LoVo, MDA-MB-231, MIA PaCa-2, NCI-H292, OVCAR-3, PANC-1, PC-3, RPMI 8226 and U266 cells are seeded at 1.25×10^3, 5×10^3, 1.5×10^4, 5×10^3, 5×10^3, 1×10^4, 2×10^3, 4×10^3, 1×10^4, 7.5×10^3, 5×10^3, 2×10^4, 2.5×10^4 cells/well respectively in 90 μl complete media into Corning 3904 black-walled, clear-bottom tissue culture plates. 20 mM stock solutions of compounds of Formula II, IIA, and IIB are prepared in 100% DMSO, aliquoted and stored at −80° C. Compounds of Formula II, IIA, and IIB are serially diluted and added in triplicate to the test wells resulting in final concentrations ranging from of 20 μM to 0.2 pM. […]
# (§10) Following 48 hours of drug exposure, 10 μl of 0.2 mg/ml resazurin (obtained from Sigma-Aldrich Chemical Co.) in Mg^2+, Ca^2+ free phosphate buffered saline is added to each well and the plates are returned to the incubator for 3-6 hours. Since living cells metabolize Resazurin, the fluorescence of the reduction product of Resazurin is measured using a Fusion microplate fluorometer (Packard Bioscience) with λex=535 nm and λem=590 nm filters. […]
# (§11) The cytotoxicity assays were performed by seeding individual cell lines at appropriate density in the 96 well flat-bottomed plates and allowed to attach for 24 hours at 37° C., 5% CO2 and 95% humidified air (RPMI 8226 and U266 cells were plated in 96 well plates on the day of compound addition). […] Cell viability was assessed 48 hours later by measuring the fluorescence of the reduction product of Resazurin by a Fusion microplate fluorometer (PerkinElmer) with λex=535 nm and λem=590 nm filters. […]
# [9] = tested on: PC3 (Prostate); assay: 48 hr cytotoxicity, PC-3; assay type: cell-based, human; settings: Homo sapiens, 48 h
# Protocol: as §8, §9, §10, §11
# [10] = tested on: HT-29 (Colon); assay: 48 hr cytotoxicity, HT-29; assay type: cell-based, human; settings: Homo sapiens, HT-29, 48 h
# Protocol: as §6, §7
# [11] = tested on: MDA-MB-231 (Breast); assay: 48 hr cytotoxicity, MDA-MB-231; assay type: cell-based, human; settings: Homo sapiens, MDA-MB-231, 48 h
# Protocol: as §8, §9, §10, §11
smiles,measurement,setting,value
C=C[C@@]1(C)CCC=C2[C@H]1CC[C@@H]1[C@](C)(CNCCN)CCC[C@@]21C [CC-3-13P],EC50,[1],0.4 µM
same,EC50,"[1]; Homo sapiens, PBMC, 5 h",0.5 µM
same,EC50,[2],0.7 µM
same,EC50,"[2]; Homo sapiens, 24 h",0.9 µM
same,EC50,[3],4 µM
same,EC50,"[3]; Homo sapiens, PC-3, 48 h",3.7 µM
same,EC50,[4],2.7 µM
same,EC50,"[4]; Homo sapiens, RPMI-8226, 48 h",2.3 µM
C=C[C@@]1(C)CCC=C2[C@H]1CC[C@@H]1[C@](C)(CC(=O)CN3CCNCC3)CCC[C@@]21C [CC-3-19],EC50,"[1]; Homo sapiens, PBMC, 5 h",3.3 µM
same,EC50,"[2]; Homo sapiens, 24 h",3 µM
C=C[C@@]1(C)CCC=C2[C@H]1CC[C@@H]1[C@](C)(COC(=O)CN3CCOCC3)CCC[C@@]21C [CC-3-22],inhibition at 0.1 µg/mL,[5]; 100 ng/ml,0%
same,inhibition at 1 µg/mL,[5]; 1 ug/ml,0%
same,inhibition at 10 µg/mL,[5]; 10 ug/ml,20%
same,Effect on Cell Viability,[6]; 100 ng/ml,100
same,Effect on Cell Viability,[6]; 1 ug/ml,100
same,Effect on Cell Viability,[6]; 10 ug/ml,100
same,EC50,"[1]; Homo sapiens, PBMC, 5 h",7.4 µM
same,EC50,"[2]; Homo sapiens, 24 h",24 µM
C=CC(=O)[C@]1(C)CCC[C@@]2(C)C3CCC4C[C@@]3(CCC21)CC4=C (stereo partly shown) [NPI-1388],IC50,[7],4.1 ± 1.1 µM
same,IC50,[8],8.6 ± 6.4 µM
same,IC50,[9],10 ± 3 µM
same,IC50,[10],17 ± 4 µM
same,IC50,[11],14 ± 5 µM
C=C[C@@]1(C)CCC=C2[C@H]1CC[C@@H]1[C@](C)(C(=O)O)CCC[C@@]21C [TTL1],Effect on Cell Viability,[6]; 100 ng/ml,100
same,Effect on Cell Viability,[6]; 1 ug/ml,100
